Measured values published in patent publication US4309559A, “Sulphonamides useful as pesticides” (FBC Limited, priority 1977, dated 1982).
Read-outs that look alike come from different tables or passages of the source.

How the values were obtained:
[1] = test system: rice blast Pyricularia oryzae; type: in vivo; details: soil and leaves, 7 days, controls less than 5%
[2] = test system: vine downy mildew, Plasmopara viticola; assay: Vine downy mildew control on vine plants (application to soil and leaves); type: in vivo; details: 2000 ppm, 12 days, controls less than 5%
Procedure: Aqueous acetone solutions of each of the compounds listed in the Table below, containing 2000 parts per million (ppm), together with 125 ppm of a suitable wetting agent, were applied to the soil surrounding the roots and leaves of vine plants having five fully expanded leaves.
The treated plants, together with controls treated with wetting agent alone, were inoculated 24 hours after the chemical application with an aqueous suspension of sporangia of the disease organism known as vine downy mildew, Plasmopara viticola.

[3] = test system: potato blight Phytophthora infestans; type: in vivo; details: 5 days, controls less than 5%
[4] = test system: barley powdery mildew Erysiphe graminis; assay: Barley powdery mildew control on barley plants; type: in vivo; details: 2000 ppm; soil and leaves; 10 days; controls less than 5%
[5] = test system: Pythium ultimum; assay: Fungal growth on the surface of soil infected with damping-off disease organism; type: in vivo; details: 300 ppm; 6 days, 25° C.; 0-8 scale (Examples 233, 234, 268)
Procedure: (§1) A one week old maize meal/sand culture of the damping-off disease organism Pythium ultimum was thoroughly mixed by hand with clean sterile John Innes No. 1 potting compost in the ratio of 3 kg culture to 12 liters of soil. The infected soil was then left for approximately 18 hours before use. Each of the compounds listed below was ground together with a wetting agent, Tween 20 (1% of final volume), until a solution or fine suspension was produced which was then diluted with distilled water to give 160 ml of solution containing 1500, 500, 150 or 50 ppm active ingredient. 15 ml aliquots of this solution were added to 75 g portions of the soil infected with Pythium ultimum which were contained in small plastic cartons, 60 mm diameter×55 mm high. Fifteen cabbage seeds, variety Flower of Spring, were placed in a circular depression in the treated infected soil, recovered, and the whole sealed with a plastic cap. The cartons were then placed in a constant temperature room at 25° C.±1° C. Four replications per treatment were made with one additional treatment where seeds were sown in soil which was chemically treated only, i.e. there was no infection. This latter treatment was included to measure the direct effect of the chemical on the germination of the seed. After six days the cartons were removed from the controlled temperature chamber and assessed for degree of fungal growth on the soil surface and percentage of seedling emergence. The results of both these assessments are expressed in a 0-8 scale as follows:
(§2) One week old maize meal/sand culture of the damping-off disease organism Pythium ultimum was thoroughly mixed by hand with clean sterile John Innes No. 1 potting compost in the ratio of 3 kg culture to 12 liters of soil. This infected soil was then left for approximately 18 hours before use. The compounds listed in the Table below were each ground with the wetting agent Tween 20 (1% of final volume), until a solution or fine suspension was produced, which was then diluted with distilled water to give 160 ml of solution containing 1500 or 500 parts per million (ppm) active ingredient. 15 ml aliquots of this solution were added to 75 g portions of the soil infected with Pythium ultimum which were contained in small plastic cartons, 60 mm diameter×55 mm high.
(§3) Fifteen cabbage seeds, variety Flower of Spring, were placed in a circular depression in the treated infected soil, recovered, and the whole sealed with a plastic cap. The cartons were then placed in a constant temperature room at 25° C.±1° C. Four replications per treatment were made, with one additional treatment where seeds were sown in soil which was chemically treated only, i.e. there was no infection. This latter treatment was included to measure the direct effect of the chemical on the germination of the seed.
(§4) After six days, the cartons were removed from the controlled temperature chamber and assessed for degree of fungal growth on the soil surface and percentage of seedling emergence. The results of both these assessments are expressed in a 0-8 scale as follows:
(§5) N-(2-oxopropyl)-3',4'-dimethyl-methanesulphonanilide was tested at a dose rate of 300 ppm in the test described in Examples 233 and 234. It gave a mycelial control score of 0 and a germination score of 3 whereas the untreated samples gave a score of 0 for both.

[6] = test system: Pythium ultimum; assay: Cabbage seedling emergence in soil infected with Pythium ultimum; type: in vivo, Pythium ultimum (on cabbage, variety Flower of Spring); details: 300 ppm; 6 days, 25° C.; 0-8 scale (Examples 233, 234, 268)
Procedure: as §1, §2, §3, §4, §5

## CCS(=O)(=O)N(CC(=O)C(C)(C)C)c1c(C)cccc1C [Example 212, N-2-oxo-3,3-dimethylbutyl-2',6'-dimethyl-ethanesulphonanilide]
[1]; 2000 ppm
  % Control, rice blast: 80%

## Cc1cccc(Cl)c1N(CC1(C)OCCO1)S(C)(=O)=O [Example 230, N-[(2-methyl-1,3-dioxolan-2-yl)methyl]-2'-chloro-6'-methylmethanesulphonanilide]
[2]
  % Control Vine Downing Mildew: 80%

## CON=C(C)CN(c1c(C)cccc1C)S(C)(=O)=O [Example 249]
[1]; 500 ppm
  % Control, rice blast: 66%
[3]; 500 ppm
  % Control, potato blight: 74%

## CC(=O)CN(c1ccc(C)c(C)c1)S(C)(=O)=O [Example 272, N-(2-oxopropyl)-3',4'-dimethylmethanesulphonanilide]
[4]
  % Control, barley powdery mildew: 99%
[1]; 2000 ppm
  % Control, rice blast: 67%
[3]; 2000 ppm
  % Control, potato blight: 62%
[5]
  Mycelial Control Score: 0 (<20% inhibition)
[6]
  Germination Score: 3 (45-54% inhibition)
